Where “and” joins values, the source holds several entries; their conditions need not be identical. Equal entries are not always repeated. Where two headings read alike, the source gives them in different places.

Experiment [1] has as its system HIV-1. Nature of the experiment: NCI in vitro anti-HIV screen: reduction of HIV-1 cytopathic effect in T4 lymphocytes (CEM cell line), XTT/formazan readout. The format is cell-based, HIV-1 (in human cell line CEM). The following applies: replicate tests; for TI50 (therapeutic index, IC50/EC50): calculated as IC50/EC50, CEM cells. On the procedure: Representative compounds of this invention were tested for anti-viral activity by subjecting them to standard National Cancer Institute ("NCI") in vitro screening procedures. Two blanks were run with each test. The NCI test for agents active against HIV is designed to detect agents acting at any stage of the virus reproduction cycle.
In the test assay, small amounts of HIV are added to T4 lymphocyte cells. The assay measures the amount of T4 lymphocytes "killed" by HIV cytolysis. Since a complete cycle of viral reproduction is necessary to "kill" the T4 lymphocyte cells, agents that interfere with viral reproduction will protect the cells from cytolysis.
The NCI system is automated in several features to accomodate large numbers of candidate agents and is generally designed to detect anti-HIV activity. […] All tests are compared with at least one positive (AZT-treated) control done at the same time under identical conditions.
(§1) 1) The test compound was dissolved in dimethyl sulfoxide and diluted 1:100 in cell culture medium before serial half-log10 dilutions were prepared. T4 lymphocytes (CEM cell line) were then added to the cell culture medium, and, finally, after a brief interval, HIV-1 was added, resulting in a 1:200 final dilution of the test compound. Uninfected cells in the cell culture medium containing the test compound (i.e., minus HIV-1) were used as a toxicity control, and infected cells in the cell culture medium without the test compound and uninfected cells in the cell culture medium without the test compound, were used as basic controls.
(§2) 2) The cultures were incubated at 37° C. in a 5% carbon dioxide atmosphere for 6 days.
(§3) 3) The tetrazolium salt, XTT, was added to all wells, and the cultures were then incubated to allow formazan color development by viable cells.
(§4) 4) Individual wells were analyzed spectrophotometrically to quantitate formazan production, and were also viewed microscopically for detection of viable cells and confirmation of protective activity.
(§5) 5) Virus-infected cells exposed to the test compound were compared with noninfected cells exposed to the test compound, and with other appropriate controls (infected cells not exposed to the test compound and noninfected cells not exposed to the test compound, wells containing only the test compound in the cell culture medium, and so on) on the same plate. These are the first and second blanks described below.
6) Data were reviewed in comparison with other tests done at the same time and a determination concerning activity was made. In the first blank, HIV and T4 lymphocytes in cell culture medium, were incubated together to measure the infectivity of the virus. The viability of the cells was measured after holding for six or seven days. In an "effective" test, most cells were infected before the holding period was complete.
Finally, the protective effects of the test compounds were measured. Each cell culture and test compound were incubated with the virus and the viability of the cells was measured as a function of compound concentration after incubation for six or seven days. The concentration of the test compound that results in 50% "control," i.e., a 50% reduction of the viral cytopathic effect, is defined as its EC50. The therapeutic index TI50 was calculated as IC50 /EC50.
Concentrations of test compounds required for between 20 and 50% reduction of the viral cytopathic effect can also be determined. Such compounds are classified as moderately active.
(§6) The compounds were tested to determine their reduction of HIV cytopathic effect on the human cell line CEM. Tests were done by innoculating these cell lines in-well (IW), i.e., the test compound and CEM cells were mixed on a test plate and the virus was added a short time later.

Experiment [2] relates to T4 lymphocytes (CEM cell line). In words: Toxicity to uninfected T4 lymphocytes (CEM cell line): 50% inhibition of cell growth (second blank). It counts as cell-based, human. The settings on record: uninfected CEM cells, no HIV-1, cytotoxicity, replicate tests, read-out: IC50 (concentration that results in 50% inhibition of cell growth). The method, then:
as §1, §2, §3, §4, §5
In the second blank, the T4 lymphocytes in cell culture medium and the test compound (with no HIV-1) were incubated together to measure the toxicity of the drug to the cellline. The viability of the cells was measured as a function of concentration of the compound, after incubation for seven days. The concentration of the test compound that results in 50% inhibition of cell growth is defined as its IC50.
as §6

Setting [3] is: HIV-1 infected CEM cells, in-well (IW) inoculation, six or seven days, read-out: EC50 (concentration that results in 50% reduction of the viral cytopathic effect).
Setting [4] is: Human immunodeficiency virus 1, CCRF-CEM, 168 h, HIV-1 infected CEM cells, in-well (IW) inoculation, six or seven days, read-out: EC50 (concentration that results in 50% reduction of the viral cytopathic effect).

In the case of `CC1(OC(=O)c2cc(NC(=O)c3ccccc3)ccc2Cl)CCCC1` [Compound 1], the EC50 in experiment [1] (setting [3]) was 11.5 µM and 15.2 µM and 17.6 µM; in experiment [1] (setting [4]) it was 17.3 µM. Also, the “TI50 (therapeutic index, IC50/EC50)” value in experiment [1] is 2 and 4. Also, the IC50 in experiment [2] (Homo sapiens, CCRF-CEM) was 41.8 µM; in experiment [2], 49.5 µM and 32.7 µM and 32 µM.
In the case of `CC1(OC(=O)c2cc(NC(=S)c3ccccc3)ccc2Cl)CCCC1` [Compound 2], the EC50 in experiment [1] (setting [3]) is 0.216 µM and 0.232 µM and 0.398 µM and 0.598 µM. Besides, the “TI50 (therapeutic index, IC50/EC50)” value in experiment [1] was 137 and 124 and 78 and 54. Besides, the IC50 in experiment [2] (Homo sapiens, CCRF-CEM) is 29.4 µM; in experiment [2], 28.8 µM and 31 µM and 32 µM.
Consider `CC1CCCC1OC(=O)c1cc(NC(=S)c2ccccc2)ccc1Cl` (stereo not drawn) [Compound 3], for which the EC50 in experiment [1] (setting [3]) is 0.0867 µM and 0.0783 µM and 0.101 µM; in experiment [1] (setting [4]), 0.0967 µM. Besides, the “TI50 (therapeutic index, IC50/EC50)” value in experiment [1] was 146 and 141 and 180 and 136. Also, the IC50 in experiment [2] (Homo sapiens, CCRF-CEM) was 14.1 µM; in experiment [2] it was 12.2 µM and 13.8 µM.
As for `CC1CCCC(C)C1OC(=O)c1cc(NC(=S)c2ccccc2)ccc1Cl` (stereo not drawn) [Compound 4], the EC50 in experiment [1] (setting [3]) was 0.94 µM and 2.1 µM and 0.95 µM and 0.37 µM. In addition, the “TI50 (therapeutic index, IC50/EC50)” value in experiment [1] was > 14 and > 6 and > 35. Besides, in experiment [2] (Homo sapiens, CCRF-CEM), the IC50 was > 13 µM.
Consider `CC1CCCCC1OC(=O)c1cc(NC(=S)c2ccccc2)ccc1Cl` (stereo not drawn) [Compound 5], for which the EC50 in experiment [1] (setting [3]) was 0.175 µM and 0.199 µM and 0.0791 µM and 0.126 µM. The “TI50 (therapeutic index, IC50/EC50)” value in experiment [1] was 92 and 71 and 172 and 107. Also, the IC50 in experiment [2] (Homo sapiens, CCRF-CEM) is 16 µM; in experiment [2], 14.1 µM and 13.6 µM and 13.4 µM.
Take `CC1=C(C(=O)Nc2ccc(Cl)c(C(=O)OC3CCCCC3C)c2)SCCO1` (stereo not drawn) [Compound 6]: in experiment [1], the “TI50 (therapeutic index, IC50/EC50)” value is > 1 and > 18 and 19 and 18. The IC50 was > 24 µM in experiment [2] (Homo sapiens, CCRF-CEM); 14 µM and 20 µM in experiment [2].
On to `CC1CCC(OC(=O)c2cc(NC(=O)c3ccccc3)ccc2Cl)C1` (stereo not drawn) [Compound 7], for which the EC50 was 5.8 µM and 3.6 µM and 6.1 µM in experiment [1] (setting [3]); 5.7 µM in experiment [1] (setting [4]). For the same molecule, the “TI50 (therapeutic index, IC50/EC50)” value in experiment [1] was 3 and 2 and 5. Also, the IC50 was 19 µM in experiment [2] (Homo sapiens, CCRF-CEM); 11 µM and 17 µM and 14 µM in experiment [2].
On to `CC1CCC(OC(=O)c2cc(NC(=S)c3ccccc3)ccc2Cl)C1` (stereo not drawn) [Compound 8], for which the EC50 is 0.195 µM and 0.184 µM and 0.181 µM in experiment [1] (setting [3]); 0.213 µM in experiment [1] (setting [4]). The “TI50 (therapeutic index, IC50/EC50)” value in experiment [1] was 68 and 69 and 80 and 72. Further, the IC50 in experiment [2] (Homo sapiens, CCRF-CEM) was 14.6 µM; in experiment [2], 13.5 µM and 14.8 µM and 13.1 µM.
Take `CC1CCCCC1OC(=O)c1cc(NC(=O)c2ccccc2)ccc1Cl` (stereo not drawn) [Compound 9, 2-methylcyclohexyl 2-chloro-5-(benzoylamino)benzoate]: the EC50 is 4.65 µM in experiment [1] (Human immunodeficiency virus 1, CCRF-CEM, 168 h, read-out: EC50 (concentration that results in 50% reduction of the viral cytopathic effect), HIV-1 infected CEM cells, in-well (IW) inoculation, six or seven days); 4.47 µM and 2.37 µM in experiment [1] (read-out: EC50 (concentration that results in 50% reduction of the viral cytopathic effect), HIV-1 infected CEM cells, in-well (IW) inoculation, six or seven days). Also, the “TI50 (therapeutic index, IC50/EC50)” value in experiment [1] was 31 and 28 and 65. The IC50 in experiment [2] (Homo sapiens, CCRF-CEM) is 14.2 µM; in experiment [2], 12.6 µM and 15.3 µM and 14.5 µM.
Consider `Cc1ccccc1C(=O)Nc1ccc(Cl)c(C(=O)OC2CCCCC2C)c1` (stereo not drawn) [Compound 10], for which the EC50 in experiment [1] (setting [3]) was 2.39 µM and 1.75 µM and 1.3 µM and 1.13 µM. Besides, the “TI50 (therapeutic index, IC50/EC50)” value in experiment [1] is 8 and 10 and 13 and 15. Further, the IC50 in experiment [2] (Homo sapiens, CCRF-CEM) was 19.7 µM; in experiment [2], 16.9 µM and 17.1 µM and 16.6 µM.
Turning to `Cc1ccccc1C(=S)Nc1ccc(Cl)c(C(=O)OC2CCCCC2C)c1` (stereo not drawn) [Compound 11], the EC50 is 5.4 µM and 4.4 µM in experiment [1] (setting [3]); 5 µM in experiment [1] (setting [4]). In addition, the “TI50 (therapeutic index, IC50/EC50)” value in experiment [1] is reported as > 2. Further, in experiment [2] (Homo sapiens, CCRF-CEM), the IC50 is > 9.4 µM.
In the case of `CC(OC(=O)c1cc(NC(=S)c2ccccc2)ccc1Cl)C1CCCC1` (stereo not drawn) [Compound 12], the EC50 is 0.23 µM and 0.27 µM in experiment [1] (setting [3]); 0.28 µM in experiment [1] (setting [4]). Besides, the “TI50 (therapeutic index, IC50/EC50)” value in experiment [1] is > 48 and > 60 and > 50. Also, the IC50 in experiment [2] (Homo sapiens, CCRF-CEM) was > 14 µM.
`CC(OC(=O)c1cc(NC(=S)c2ccccc2)ccc1Cl)C1CC1` (stereo not drawn) [Compound 13]: in experiment [1] (setting [3]), the EC50 is 2.1 µM and 2.2 µM and 0.79 µM and 0.72 µM. In experiment [1], the “TI50 (therapeutic index, IC50/EC50)” value was > 18 and > 17 and > 48 and > 52. Moreover, the IC50 in experiment [2] (Homo sapiens, CCRF-CEM) is > 38 µM.
Turning to `Cc1occc1C(=O)Nc1ccc(Cl)c(C(=O)OC(C)C2CCCC2)c1` (stereo not drawn) [Compound 14], in experiment [1] (setting [3]), the EC50 is 0.84 µM and 1.1 µM and 0.77 µM and 2.3 µM and 1.7 µM. For the same molecule, the “TI50 (therapeutic index, IC50/EC50)” value in experiment [1] is 9 and > 13 and > 18 and > 6 and > 8. Besides, the IC50 is 7.7 µM in experiment [2] (Homo sapiens, CCRF-CEM) and > 14 µM in experiment [2].
For `Cc1occc1C(=O)Nc1ccc(Cl)c(C(=O)OC(C)C2CC2)c1` (stereo not drawn) [Compound 15], in experiment [1] (setting [3]), the EC50 is 1.4 µM and 2.5 µM and 1.1 µM. Besides, the “TI50 (therapeutic index, IC50/EC50)” value in experiment [1] was > 14 and > 8 and > 19. Besides, the IC50 in experiment [2] (Homo sapiens, CCRF-CEM) was > 21 µM.
For `Cc1occc1C(=S)Nc1ccc(Cl)c(C(=O)OC(C)C2CC2)c1` (stereo not drawn) [Compound 16], the “TI50 (therapeutic index, IC50/EC50)” value in experiment [1] is > 440 and > 240 and > 1600. In experiment [2] (Homo sapiens, CCRF-CEM), the IC50 is > 20 µM.
As for `CC(OC(=O)c1cc(NC(=O)c2cccn2C)ccc1Cl)C1CC1` (stereo not drawn) [Compound 17], the EC50 in experiment [1] (setting [3]) is 5.3 µM and 9.7 µM and 5 µM and 4.1 µM. Further, the “TI50 (therapeutic index, IC50/EC50)” value in experiment [1] was > 10 and > 6 and > 11 and > 13. The IC50 in experiment [2] (Homo sapiens, CCRF-CEM) was > 54 µM.

Values taken from patent US5756813A, “Hindered aromatic ester compounds useful as anti-viral agents” (Uniroyal Chemical Ltd/Uniroyal Chemical Ltee, priority 1996, dated 1998).
